Source: patent publication US20220193386A1, “MICRONEEDLE ARRAYS FOR CANCER THERAPY APPLICATIONS” (University of Pittsburgh - Of the Commonwealth System of …, priority 2014, published 2022)

Legend:
[1] = system: epidermal cells; details: pyramidal CMC-microneedle arrays, 5 mg/g of CMC, arrays removed after 5 minutes, 72 hours of exposure
Description: Cytoxan® was integrated at a concentration of 5 mg/g of CMC, enabling delivery of approximately about 140 μg per array. This is a therapeutically relevant concentration based on the area of skin targeted, yet well below levels associated with systemic toxicities. Living human skin organ cultures were used to assess the cytotoxicity of Cytoxan®. Cytoxan® was delivered by application of arrays to skin explants as we previously described. Arrays and residual material were removed 5 minutes after application, and after 72 hours of exposure, culture living skin explants were cryo-sectioned and fixed. Apoptosis was evaluated using green fluorescent TUNEL assay (In Situ Cell Death Detection Kit, TMR Green, Roche, cat #:11-684-795-910).

[2] = system: human skin; assay: Apoptosis and necrosis in human skin at the doxorubicin MNA dose; details: MNA dose of doxorubicin chosen for the B16 study
[3] = system: B16 melanoma; assay: B16 melanoma model: MNA treatment of established cutaneous tumors, tumor growth and survival; details: MNAs once weekly for three weeks, established B16 skin tumors; for tumor growth: vs untreated; for survival: untreated 100% mortality, through day 70
Description: The B16 melanoma model was used as a model tumor to test these novel approaches.
B16 skin tumors were established in normal mice by injection. Visible established cutaneous tumors were treated once weekly for three weeks with MNAs containing either doxorubicin alone, Poly(I:C) alone, or doxorubicin and Poly(I:C) incorporated into the same MNA. […] Tumor growth and survival were measured regularly for the duration of the study.

[4] = system: OVA; assay: OVA-specific CTL activity in vivo after CMC-microneedle array immunization; design: species or system mice; details: pyramidal CMC-microneedle arrays on mouse ears, 5 minutes, boosted one week later
Description: To directly evaluate the immunogenicity of CMC microneedle array incorporated antigens, the well characterized model antigen ovalbumin was used. Pyramidal arrays were fabricated incorporating either soluble ovalbumin (sOVA), particulate ovalbumin (pOVA), or arrays containing both pOVA along with CpGs. The adjuvant effects of CpGs are well characterized in animal models, and their adjuvanticity in humans is currently being evaluated in clinical trials.
Immunization was achieved by applying antigen containing CMC-microneedle arrays to the ears of anesthetized mice using a spring-loaded applicator as described above, followed by removal of the arrays 5 minutes after application. These pyramidal microneedle arrays contained about 5 wt % OVA in CMC and about 0.075 wt % (20 μM) CpG. As a positive control, gene gun based genetic immunization strategy using plasmid DNA encoding OVA was used.
Mice were immunized, boosted one week later, and then assayed for OVA-specific CTL activity in vivo. […] It is well established that similar responses require substantially higher doses of antigen when delivered by traditional needle injection.
To evaluate the stability of fabricated arrays, batches of arrays were fabricated, stored, and then used over an extended period of time. […]

O=P1(N(CCCl)CCCl)NCCCO1 (centres unmarked) [Cytoxan®, cyclophosphamide]
apoptosis of epidermal cells (TUNEL) [1]: extensive apoptosis of epidermal cells

COc1cccc2c1C(=O)c1c(O)c3c(c(O)c1C2=O)C[C@@](O)(C(=O)CO)C[C@@H]3O[C@H]1C[C@H](N)[C@H](O)[C@H](C)O1 [doxorubicin]
apoptosis / necrosis in human skin [2]: induces apoptosis in human skin without causing necrosis | tumor growth [3]: slowed tumor growth | survival [3]: 30%

Poly(I:C)
tumor growth [3]: slowed tumor growth | survival [3]: 50%

particulate OVA: particulate ovalbumin model antigen incorporated in pyramidal CMC microneedle arrays
OVA-specific CTL activity in vivo [4]: Significant OVA-specific CTL activity

soluble OVA: soluble ovalbumin model antigen incorporated in pyramidal CMC microneedle arrays
OVA-specific CTL activity in vivo [4]: Significant OVA-specific CTL activity
